These results are taken from patent US20210403435A1, “HERBICIDAL COMPOUNDS” (SYNGENTA CROP PROTECTION AG, priority 2018, published 2021).

Holding throughout (assay): Post-emergence efficacy, glasshouse, evaluated after 13 days
Format in all cases: in vivo

For assay [1], the system named is Amaranthus palmeri (AMAPA). The following applies: post-emergence application, 500 g/Ha, evaluated after 13 days; for pest or weed control at 500 g/ha: Amaranthus palmeri, 312 h, read-out: Control of weed species AMAPA (100=total damage to plant; 0=no damage to plant). The gist of the method:
(§1)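 Plants grown 14 days in pots of standard soil in a glasshouse (24/16 °C day/night, 14 h light, 65% humidity), then sprayed post-emergence with compound formulated in acetone and IF50 and diluted in 0.25% or 1% Empicol ESC70 + 1% ammonium sulphate. Damage scored after 13 days, 0–100 (100 = total damage).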

The subject of another assay is Eleusine indica (ELEIN). The following applies: post-emergence application, 500 g/Ha, evaluated after 13 days; for pest or weed control at 500 g/ha: Eleusine indica, 312 h, read-out: Control of weed species ELEIN (100=total damage to plant; 0=no damage to plant). The method in brief:
as §1

Assay [2] has as its system Euphorbia heterophylla (EPHHL). The following applies: post-emergence application, 500 g/Ha, evaluated after 13 days; for pest or weed control at 500 g/ha: Euphorbia heterophylla, 312 h, read-out: Control of weed species EPHHL (100=total damage to plant; 0=no damage to plant). The gist of the method:
as §1

In the next assay the test system is Setaria faberi (SETFA). Conditions: post-emergence application, 500 g/Ha, evaluated after 13 days; for pest or weed control at 500 g/ha: Setaria faberi, 312 h, read-out: Control of weed species SETFA (100=total damage to plant; 0=no damage to plant). The gist of the method:
as §1

Assay [3] has as its system Chenopodium album (CHEAL). The following applies: post-emergence application, 500 g/Ha, evaluated after 13 days; for pest or weed control at 500 g/ha: Chenopodium album, 312 h, read-out: Control of weed species CHEAL (100=total damage to plant; 0=no damage to plant). The method in brief:
as §1

In a further assay the test system is Lolium perenne (LOLPE). The following applies: post-emergence application, 500 g/Ha, evaluated after 13 days; for pest or weed control at 500 g/ha: Lolium perenne, 312 h, read-out: Control of weed species LOLPE (100=total damage to plant; 0=no damage to plant). The gist of the method:
as §1

Assay [4] concerns Echinochloa crus-galli (ECHCG). Conditions: post-emergence application, 500 g/Ha, evaluated after 13 days; for pest or weed control at 500 g/ha: Echinochloa crus-galli, 312 h, read-out: Control of weed species ECHCG (100=total damage to plant; 0=no damage to plant). The method in brief: as §1
The subject of assay [5] is Ipomoea hederacea (IPOHE). Conditions: post-emergence application, 500 g/Ha, evaluated after 13 days; for pest or weed control at 500 g/ha: Ipomoea hederacea, 312 h, read-out: Control of weed species IPOHE (100=total damage to plant; 0=no damage to plant). The gist of the method: as §1
Assay [6] concerns Digitaria sanguinalis (DIGSA). Conditions: post-emergence application, 500 g/Ha, evaluated after 13 days; for pest or weed control at 500 g/ha: Digitaria sanguinalis, 312 h, read-out: Control of weed species DIGSA (100=total damage to plant; 0=no damage to plant). The method in brief: as §1

Turning to `CC1(C)CC(CCNC(=O)c2cc[n+](CCC(=O)O)nc2)=NO1` [Compound A148, 3-[4-[2-(5,5-dimethyl-4H-isoxazol-3-yl)ethylcarbamoyl]pyridazin-1-ium-1-yl]propanoic acid 2,2,2-trifluoroacetate], the pest or weed control at 500 g/ha was 70% in [1]; 30% in the assay on Eleusine indica (ELEIN); 40% in assay [2]; 50% in the assay with Setaria faberi (SETFA); 90% in assay [3]; 30% with Lolium perenne (LOLPE). The pest or weed control at 500 g/ha in [4] was 30%; in [5] it was 30%; in assay [6], 80%.
With `CCNC(=O)c1cc[n+](CCCS(=O)(=O)[O-])nc1` [Compound A76], the pest or weed control at 500 g/ha in assay [1] was found to be 40%; with Eleusine indica (ELEIN), 60%; in assay [2], 100%; in the assay with Setaria faberi (SETFA), 30%; in assay [3] it was 70%; in the assay on Lolium perenne (LOLPE), 70%. In addition, the pest or weed control at 500 g/ha stood at 30% in assay [4], 30% in assay [5] and 70% in assay [6].
Regarding `O=C(c1cc[n+](CCS(=O)(=O)[O-])nc1)N1CCCCC1` [Compound A27], the pest or weed control at 500 g/ha in assay [1] was found to be 70%; in the assay with Eleusine indica (ELEIN) it was 10%; in assay [2] it was 70%; in the assay with Setaria faberi (SETFA), 40%; in assay [3], 40%; in the assay with Lolium perenne (LOLPE) it was 30%. Besides, the pest or weed control at 500 g/ha in [4] is 40%; in assay [5], 30%; in [6], 40%.
`CNC(=O)c1cc[n+](CC[C@H](N)C(=O)O)nc1.O=C(O)C(F)(F)F.O=C([O-])C(F)(F)F` [Compound A12]: in [1], the “Control of weed species AMAPA (100=total damage to plant; 0=no damage to plant)” value came to 90. Further, the “Control of weed species ELEIN (100=total damage to plant; 0=no damage to plant)” value with Eleusine indica (ELEIN) was found to be 60. The “Control of weed species EPHHL (100=total damage to plant; 0=no damage to plant)” value in assay [2] is 70. Moreover, the “Control of weed species SETFA (100=total damage to plant; 0=no damage to plant)” value in the assay on Setaria faberi (SETFA) came out at 60. For the same compound, the “Control of weed species CHEAL (100=total damage to plant; 0=no damage to plant)” value in assay [3] is 60. The “Control of weed species LOLPE (100=total damage to plant; 0=no damage to plant)” value in the assay on Lolium perenne (LOLPE) is 40. Further, the “Control of weed species ECHCG (100=total damage to plant; 0=no damage to plant)” value in assay [4] is 80. For the same compound, the “Control of weed species IPOHE (100=total damage to plant; 0=no damage to plant)” value in assay [5] is given as 40. Besides, the “Control of weed species DIGSA (100=total damage to plant; 0=no damage to plant)” value in assay [6] was found to be 90.
On to `CNC(=O)c1cc[n+](CCS(=O)(=O)[O-])nc1` [Compound A1, 2-[4-(methylcarbamoyl)pyridazin-1-ium-1-yl]ethanesulfonate], for which the pest or weed control at 500 g/ha in [1] came to 100%; in the assay with Eleusine indica (ELEIN), 70%; in [2] it was 70%; in the assay with Setaria faberi (SETFA), 80%; in assay [3], 70%; with Lolium perenne (LOLPE) it was 80%. In addition, the figures for the pest or weed control at 500 g/ha in assay [4], in assay [5] and in assay [6] were 60%, 60% and 90%, respectively.
As for `C=CCNC(=O)c1cc[n+](CCS(=O)(=O)[O-])nc1` [Compound A18], the pest or weed control at 500 g/ha was found to be 100% in assay [1]; 90% with Eleusine indica (ELEIN); 70% in assay [2]; 50% in the assay with Setaria faberi (SETFA); 90% in assay [3]; 70% in the assay with Lolium perenne (LOLPE). Besides, the pest or weed control at 500 g/ha is 90% in assay [4], 70% in assay [5] and 80% in assay [6].
